Experimental data from publication PMC7311426, “An amphipathic peptide with antibiotic activity against multidrug-resistant Gram-negative bacteria” (Nature Communications, 2020).
Where two headings read alike, the source gives them in different places. Residues, ends and D or L forms follow the SMILES beside them.

Key:
7-day iv MTD toxicity = conditions: minipig
in vivo = conditions: mouse, ip, Cross species PK, concentration (Fig 6 source data)
[1] = test system: HK-2 human kidney proximal tubule cells; assay: in vitro
[2] = test system: HepG2 liver hepatocellular carcinoma cells; assay: in vitro
in vitro = conditions: human
[3] = test system: human erythrocytes (HRBC); assay type: cell-based
[4] = mouse IP
[5] = inhalation, mice; for Tmax: relative to end of inhalation
E. coli K12 MG1655 = assay: ATP release, BacTiter-Glo luminescence; assay type: cell-based, Escherichia coli; conditions: 60 min
Method: ATP was measured using the BacTiter-Glo^TM Microbial Cell Viability Assay (Promega) following the manufacturer’s instructions. The assay was performed for three biological replicates at 37 °C, with luminescence recorded using a Tecan Infinite M1000 Pro plate reader. The fold reduction of ATP was calculated as: Fold reduction ATP = 1 − (Ltreat − Lmedia/Lcontrol − Lmedia); where Ltreat is the luminescence of treated cells, Lmedia is the luminescence of CAMHB without cells, and Lcontrol is the luminescence of untreated cells. Resultant graphs show mean (n = 7) and std error for each data point, prepared in Prism 8. DMSO was included as a control as piperacillin was solubilized in DMSO, with final assay concentration of 2.5%.

E. coli DSA 443 ESBL = assay: Murine urinary tract infection (UTI) model; assay type: in vivo, E. coli in OF-1 mice; conditions: for Day 3 Bladder, Mean Diff. Vehicle vs. Meropenem 40 mg/kg / Day 3 Urine, Mean Diff. Vehicle vs. Meropenem 40 mg/kg: Dunnett's multiple comparisons test; for Day 3 Urine, Mean 2 (group mean) / Mean Diff., Vehicle vs. treated / Mean 2 (group mean bacterial count): Meropenem 40 mg/kg; for Day 3 Urine, Mean 2 (group mean): n2 = 8; for Mean Diff., Vehicle vs. treated / Mean 2 (group mean bacterial count): UTI model, Day 3 Kidneys

CC(C)[C@@H]1NC(=O)[C@H](Cc2ccc(O)cc2)NC(=O)[C@H](Cc2c[nH]c3ccccc23)NC(=O)[C@@H](NC(=O)[C@H](Cc2ccccc2)NC(=O)CN)CSSC[C@@H](C(=O)N[C@@H](CC(N)=O)C(=O)O)NC(=O)[C@H](CCCNC(=N)N)NC(=O)[C@H](CCCNC(=N)N)NC(=O)[C@H](Cc2ccc(O)cc2)NC(=O)[C@@H]2CSSC[C@H](NC1=O)C(=O)N[C@@H](C)C(=O)N[C@@H](CCCNC(=N)N)C(=O)N[C@@H](CCCNC(=N)N)C(=O)N[C@@H](CC(N)=O)C(=O)NCC(=O)N[C@@H](C)C(=O)N[C@@H](CCCNC(=N)N)C(=O)N[C@@H](C(C)C)C(=O)N2 [AA139] (HELM PEPTIDE1{G.F.C.W.Y.V.C.A.R.R.N.G.A.R.V.C.Y.R.R.C.N}$PEPTIDE1,PEPTIDE1,3:R3-20:R3|PEPTIDE1,PEPTIDE1,7:R3-16:R3$$$V2.0)
MTD at 168 h (7-day iv MTD toxicity; in vivo, iv): 10 mg/kg
AUC(0-inf) (7-day iv MTD toxicity; in vivo, iv, 10 mg/kg): 36700 ng·h/mL
Cmax (7-day iv MTD toxicity; in vivo, iv, 10 mg/kg): 8700 ng/mL
Target organ toxicity, kidney (7-day iv MTD toxicity; 20, 25, or 30 mg kg^−1 per day by 2 h i.v. infusion for 7 days, dose-related severity): tubular nephropathy present
level at 1 h (in vivo; replicate 1): 5200 ng/mL
level at 1 h (in vivo; replicate 2): 5250 ng/mL
level at 1 h (in vivo; replicate 3): 5230 ng/mL
level at 2 h (in vivo; replicate 1): 4240 ng/mL
level at 2 h (in vivo; replicate 2): 4550 ng/mL
level at 2 h (in vivo; replicate 3): 4140 ng/mL
level at 4 h (in vivo; replicate 1): 1820 ng/mL
level at 4 h (in vivo; replicate 2): 1560 ng/mL
level at 4 h (in vivo; replicate 3): 1370 ng/mL
level at 8 h (in vivo; replicate 1): 570 ng/mL
level at 8 h (in vivo; replicate 2): 472 ng/mL
level at 8 h (in vivo; replicate 3): 682 ng/mL
CC50 HK2 [1]: >255 µg/mL
CC50 HK2, Mean [1]: >250 µg/mL
CC50 HepG2 [2]: >300 µg/mL
CC50 HepG2, Mean [2]: >300 µg/mL
CC50 at 24 h (in vitro; HEK-293 cells): > 300 µg/mL
CC50 at 24 h (in vitro; HK-2 cells): > 250 µg/mL
CC50 at 24 h (in vitro; HepG2 cells): > 300 µg/mL
Heamolysis HC10, Mean [3]: >300 µg/mL
Heamolysis HC10 ([3]; red cells of human, 3 h): >300 µg/mL
Cross species PK, concentration (Fig 6 source data) ([4]; time 0.08 h, replicate 1): 6190
Cross species PK, concentration (Fig 6 source data) ([4]; time 0.08 h, replicate 3): 3520
Cross species PK, concentration (Fig 6 source data) ([4]; time 0.5 h, replicate 1): 5370
Cross species PK, concentration (Fig 6 source data) ([4]; time 0.5 h, replicate 2): 4790
Cross species PK, concentration (Fig 6 source data) ([4]; time 0.5 h, replicate 3): 6580
AUC(0-t) ([5]; ELF, Day 1, 5 mg kg-1/day): 27,250 ng*h mL-1
Cmax ([5]; ELF, Day 1, 5 mg kg-1/day): 14,750 ng mL-1
Tmax ([5]; ELF, Day 1, 5 mg kg-1/day): 30 min
Cmax ([5]; ELF, Day 1, 20 mg kg-1/day): 8,245 ng mL-1
Tmax ([5]; ELF, Day 1, 20 mg kg-1/day): 78 min
AUC(0-t) ([5]; ELF, Day 1, 40 mg kg-1/day): 63,300 ng*h mL-1
Cmax ([5]; ELF, Day 1, 40 mg kg-1/day): 36,300 ng mL-1
Tmax ([5]; ELF, Day 1, 40 mg kg-1/day): 0 min
AUC(0-t) ([5]; ELF, Day 7, 5 mg kg-1/day): 58,650 ng*h mL-1
Cmax ([5]; ELF, Day 7, 5 mg kg-1/day): 21,100 ng mL-1
Tmax ([5]; ELF, Day 7, 5 mg kg-1/day): 18 min
Cmax ([5]; ELF, Day 7, 20 mg kg-1/day): 42,350 ng mL-1
Tmax ([5]; ELF, Day 7, 20 mg kg-1/day): 0 min
AUC(0-t) ([5]; Lung (ng/g), Day 1, 5 mg kg-1/day): 8,585 ng*h mL-1
AUC(0-t) ([5]; Lung (ng/g), Day 1, 20 mg kg-1/day): 14,411 ng*h mL-1
AUC(0-t) ([5]; Lung (ng/g), Day 1, 40 mg kg-1/day): 7,002 ng*h mL-1
AUC(0-t) ([5]; Lung (ng/g), Day 7, 5 mg kg-1/day): 11,802 ng*h mL-1
AUC(0-t) ([5]; Lung (ng/g), Day 7, 20 mg kg-1/day): 66,791 ng*h mL-1
Cmax ([5]; Lung, Day 1, 5 mg kg-1/day): 3,935 ng/g
Tmax ([5]; Lung, Day 1, 5 mg kg-1/day): 0 min
Cmax ([5]; Lung, Day 1, 20 mg kg-1/day): 7,691 ng/g
Tmax ([5]; Lung, Day 1, 20 mg kg-1/day): 0 min
Cmax ([5]; Lung, Day 1, 40 mg kg-1/day): 16,162 ng/g
Tmax ([5]; Lung, Day 1, 40 mg kg-1/day): 0 min
Cmax ([5]; Lung, Day 7, 5 mg kg-1/day): 4,228 ng/g
Tmax ([5]; Lung, Day 7, 5 mg kg-1/day): 0 min
Cmax ([5]; Lung, Day 7, 20 mg kg-1/day): 15,133 ng/g
Tmax ([5]; Lung, Day 7, 20 mg kg-1/day): 30 min
Tmax ([5]; Plasma, Day 7, 5 mg kg-1/day): 18 min
Tmax ([5]; Plasma, Day 7, 20 mg kg-1/day): 0 min

colistin
Concentration at which maximum ATP release is reached (E. coli K12 MG1655): at its MIC

C[C@@H](O)[C@H]1C(=O)N2C(C(=O)O)=C(S[C@@H]3CN[C@H](C(=O)N(C)C)C3)[C@H](C)[C@H]12 [Meropenem, meropenem, reference compound]
Day 3 Bladder, Mean Diff. Vehicle vs. Meropenem 40 mg/kg (E. coli DSA 443 ESBL; Arenicin-3 study): 2.654
Day 3 Urine, Mean Diff. Vehicle vs. Meropenem 40 mg/kg (E. coli DSA 443 ESBL; Arenicin-3 study): 5.07
DAY 3 BLADDER, Mean (E. coli DSA 443 ESBL; ESBL E. coli DSA 443, Meropenem 40 mg kg-1, bladder, day 3, Prism column statistics, mean of n = 12): 3.523
Day 3 Urine, Mean 2 (group mean) (E. coli DSA 443 ESBL; Arenicin-3 study): 1.314
Day 3 Urine, Mean 2 (group mean) (E. coli DSA 443 ESBL; NZ17143 study): 1.812
Day 3 Urine, Mean 2 (group mean) (E. coli DSA 443 ESBL; NZ17211 study): 1.325
Day 3 Bladder, Mean Diff. Vehicle vs. Meropenem 40 mg/kg (E. coli DSA 443 ESBL; NZ17143 study): 2.624
Day 3 Urine, Mean Diff. Vehicle vs. Meropenem 40 mg/kg (E. coli DSA 443 ESBL; NZ17143 study): 4.004
Day 3 Bladder, Mean Diff. Vehicle vs. Meropenem 40 mg/kg (E. coli DSA 443 ESBL; NZ17211 study): 4.176
Day 3 Urine, Mean Diff. Vehicle vs. Meropenem 40 mg/kg (E. coli DSA 443 ESBL; NZ17211 study): 5.546
Mean Diff., Vehicle vs. treated (E. coli DSA 443 ESBL; Arenicin-3 experiment): 0.4699
Mean Diff., Vehicle vs. treated (E. coli DSA 443 ESBL; NZ17143 experiment): 0.6355
Mean Diff., Vehicle vs. treated (E. coli DSA 443 ESBL; NZ17211 experiment): 0.1396
Mean 2 (group mean bacterial count) (E. coli DSA 443 ESBL; comparator arm of Arenicin-3 experiment): 2.023
Mean 2 (group mean bacterial count) (E. coli DSA 443 ESBL; comparator arm of NZ17143 experiment): 1.446
Mean 2 (group mean bacterial count) (E. coli DSA 443 ESBL; comparator arm of NZ17211 experiment): 2.631
